Patent publication US5401726A, “2'methylidenepyrimidine nucleoside compounds, their use and method for production thereof” (Yoshitomi Pharaceutical Industries, Ltd., priority 1988, dated 1995)
Values after ≈ are worked out from the molar mass of the structure shown.

Experiments:
[1] = solubility in saline at 25 mg/ml, room temperature; assay type: physicochemical
[2] = solubility (general statement); assay type: physicochemical; details: with respect to pharmaceutical production
L1210/c; mouse leukemia = test: MTT cytotoxicity, in vitro cell growth, L1210/c; assay type: cell-based; details: 72 hr, read-out: IC50 (concentration showing 50% cytotoxity)
Method: (§1) Effect of the compounds on in vitro cell growth of various tumor cell lines:
(§2) The assay of cytotoxicity is dependent on the cellular reduction of MTT [3'-(4,5-dimethylthiazol-2-yl)-2,5-diphenyltetrazolium bromide] by the mitochondrial dehydrogenase of viable cells to a blue formazan product which can be measured spectrophotometrically. Cell suspension, 100 μl, containing 10^4 tumor cells with or without test sample was incubated for 72 hr in 5% CO2 -95% air at 37° C. in 96 well microculture plates (Falcol 3072). The 10 μl of MTT (5 mg/ml) in saline was added to each culture well and incubated for 4 hr at 37° C. The formazan crystals were solubilized by the addition of 100 μl of 10% SDS/0.01N HCl to each well, and incubated for 24 hr at 37° C. The plates were then read at 570 nm on the plate reader. The percentage of cytotoxicity was calculated from the formula: [formula]
(§3) 2 '-Deoxy-2'-methylidene-5-fluorocytidine was dissolved in distilled water, and diluted in RPM1 1640 medium. Tumor cell lines were maintained in RPM1 1640 medium (Nissui Seiyaku Co., Ltd., Tokyo, Japan).
(§4) IC50 values gave the concentrations showing the 50% cytotoxity.

[3] = test system: PC13; human lung large cell carcinoma; test: MTT cytotoxicity, in vitro cell growth, PC13; assay type: cell-based; details: PC-13, 72 hr, read-out: IC50 (concentration showing 50% cytotoxity)
Method: as §1, §2, §3, §4

[4] = test system: U937; human histiocytic leukemia; test: MTT cytotoxicity, in vitro cell growth, U937; assay type: cell-based; details: U-937, 72 hr, read-out: IC50 (concentration showing 50% cytotoxity)
Method: as §1, §2, §3, §4

[5] = test system: CCRF-CEM; human T cell leukemia; test: MTT cytotoxicity, in vitro cell growth, CCRF-CEM; assay type: cell-based; details: 72 hr, read-out: IC50 (concentration showing 50% cytotoxity)
Method: as §1, §2, §3, §4

B16; mouse melanoma = test: MTT cytotoxicity, in vitro cell growth, B16; assay type: cell-based; details: 72 hr, read-out: IC50 (concentration showing 50% cytotoxity)
Method: as §1, §2, §3, §4

[6] = test system: MOLT4; human T cell leukemia; test: MTT cytotoxicity, in vitro cell growth, MOLT4; assay type: cell-based; details: MOLT-4, 72 hr, read-out: IC50 (concentration showing 50% cytotoxity)
Method: as §1, §2, §3, §4

[7] = test system: HL60; human promyelocytic leukemia; test: MTT cytotoxicity, in vitro cell growth, HL60; assay type: cell-based; details: HL-60, 72 hr, read-out: IC50 (concentration showing 50% cytotoxity)
Method: as §1, §2, §3, §4

SMILES	solubility in saline [1]	solubility [2]	IC50 (L1210/c; mouse leukemia)	IC50 [3]	IC50 [4]	IC50 [5]	IC50 (B16; mouse melanoma)	IC50 [6]	IC50 [7]
C=C1[C@H](n2ccc(N)nc2=O)O[C@H](CO)[C@H]1O [2'-deoxy-2'-methylidenecytidine, reference compound]	not soluble	inferior in solubility	–	–	–	–	–	–	–
C=C1[C@H](n2cc(F)c(N)nc2=O)O[C@H](CO)[C@H]1O [Example 1, 2'-deoxy-2'-methylidene-5-fluorocytidine]	easily soluble	–	0.33 µg/mL (≈ 1.28 µM)	1 µg/mL (≈ 3.89 µM)	0.44 µg/mL (≈ 1.71 µM)	0.14 µg/mL (≈ 0.544 µM)	6.9 µg/mL (≈ 26.8 µM)	0.036 µg/mL (≈ 0.14 µM)	0.04 µg/mL (≈ 0.156 µM)
